target: T1, wild-type HIV-1 protease (Human immunodeficiency virus type 1 group M subtype B, UniProt P04585); test: Assay for Inhibition of Microbial Expressed HIV Protease (peptide substrate cleavage, LC-MS/MS readout); format: biochemical; details: E. coli expressed wild-type HIV-1 protease, mean of at least two independent experiments, read-out: HIV Pr Enzyme HIV1 PR IC50
T1 construct: Escherichia coli expressed wild-type HIV-1 protease protein
How it was run: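 Cleavage of Val-Ser-Gln-Asn-(β-naphthyl)Ala-Pro-Ile-Val (400 μM) by recombinant HIV-1 protease ([…]) ran 1 h at 30 °C after a 30 min room-temperature inhibitor preincubation in 50 mM sodium acetate pH 5.5. Product peak areas by LC-MS/MS gave inhibition; values average at least two independent runs.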

SMILES	IC50 [nM]
CC(C)CCC1(c2ccccc2)NC(=N)N(Cc2cccc(C(=O)N3CCNC(=O)C3)c2)C1=O (centres unmarked) [Compound 351, 4-[(3-{[2-imino-4-(3-methylbutyl)-5-oxo-4-phenylimidazolidin-1-yl]methyl}-phenyl)carbonyl]piperazin-2-one]	86.7
CC(=O)N1CCN(C(=O)c2cccc(CN3C(=N)NC(c4ccccc4)(c4ccccc4)C3=O)c2)CC1 [Compound 352, 3-{3-[(4-acetylpiperazin-1-yl)carbonyl]benzyl}-2-imino-5,5-diphenylimidazolidin-4-one]	86.9
CN1CCN(C(=O)c2cc(F)cc(CN3C(=N)NC(c4ccccc4)(c4ccccc4)C3=O)c2)CC1=O [Compound 353, 4-({3-fluoro-5-[(2-imino-5-oxo-4,4-diphenylimidazolidin-1-yl)methyl]phenyl}carbonyl)-1-methylpiperazin-2-one]	88.8
COC(=O)N1CCN(C(=O)c2cccc(CN3C(=N)NC(CCC(C)C)(c4cccc(-c5cccnc5)c4)C3=O)c2)CC1 (centres unmarked) [Compound 354, methyl 4-[(3-{[2-imino-4-(3-methylbutyl)-5-oxo-4-(3-pyridin-3-ylphenyl)imidazolidin-1-yl]methyl}phenyl)carbonyl] piperazine-1-carboxylate]	89.1
CCOC(=O)NC1CCN(C(=O)c2cccc(CN3C(=N)NC(c4ccccc4)(c4ccccc4)C3=O)c2)CC1 [Compound 355, ethyl [1-({3-[(2-imino-5-oxo-4,4-diphenylimidazolidin-1-yl)methyl]phenyl}carbonyl)piperidin-4-yl]carbamate]	89.8
CCc1nnc2n1CCN(C(=O)c1cccc(CN3C(=N)NC(c4ccccc4)(c4ccccc4)C3=O)c1)C2 [Compound 356, 3-{3-[(3-ethyl-5,6-dihydro[1,2,4]triazolo[4,3-a]pyrazin-7(8H)-yl)carbonyl]benzyl}-2-imino-5,5-diphenylimidazolidin-4-one]	91.2
CN(C)C(=O)N1CCN(C(=O)c2cccc(CN3C(=N)NC(c4ccccc4)(c4ccccc4)C3=O)c2)CC1 [Compound 357, 4-({3-[(2-imino-5-oxo-4,4-diphenylimidazolidin-1-yl)methyl]phenyl}carbonyl)-N,N-dimethylpiperazine-1-carboxamide]	91.2
CN1CCN(C(=O)c2cccc(CN3C(=N)NC(c4ccccc4)(c4ccccc4)C3=O)c2)CC1=O [Compound 358, 4-({3-[(2-imino-5-oxo-4,4-diphenylimidazolidin-1-yl)methyl]phenyl}carbonyl)-1-methylpiperazin-2-one]	93.6
N=C1NC(c2ccccc2)(c2ccccc2)C(=O)N1Cc1cccc(C(=O)N2CCN(c3ccc(F)cc3)CC2)c1 [Compound 359, 3-(3-{[4-(4-fluorophenyl)piperazin-1-yl]carbonyl}benzyl)-2-imino-5,5-diphenylimidazolidin-4-one]	93.9
CC(C)CCC1(c2cccc(-c3cccnc3)c2)NC(=N)N(Cc2cccc(C(=O)N3Cc4cccnc4C3)c2)C1=O (centres unmarked) [Compound 360, 3-[3-(5,7-dihydro-6H-pyrrolo[3,4-b]pyridin-6-ylcarbonyl)benzyl]-2-imino-5-(3-methylbutyl)-5-(3-pyridin-3-ylphenyl)imidazolidin-4-one]	95.1
CC(C)(C)NC(=O)c1nnc2n1CCN(C(=O)c1cccc(CN3C(=N)NC(c4ccccc4)(c4ccccc4)C3=O)c1)C2 [Compound 361, N-tert-butyl-7-({3-[(2-imino-5-oxo-4,4-diphenylimidazolidin-1-yl)methyl]phenyl}carbonyl)-5,6,7,8-tetrahydro[1,2,4]triazolo[4,3-a]pyrazine-3-carboxamide]	96.1
N=C1NC(c2ccccc2)(c2ccccc2)C(=O)N1Cc1ccc(Cl)c(C(=O)N2Cc3nccnc3C2)c1 [Compound 362, 3-[4-chloro-3-(5,7-dihydro-6H-pyrrolo[3,4-b]pyrazin-6-ylcarbonyl)benzyl]-2-imino-5,5-diphenylimidazolidin-4-one]	1.34
N#Cc1ncc2c(n1)CN(C(=O)c1cc(CN3C(=N)NC(c4ccc(F)cc4)(c4ccc(F)cc4)C3=O)ccc1Cl)C2 [Compound 363, 6-[(5-{[4,4-bis(4-fluorophenyl)-2-imino-5-oxoimidazolidin-1-yl]methyl}-2-chlorophenyl)carbonyl]-6,7-dihydro-5H-pyrrolo[3,4-d]pyrimidine-2-carbonitrile]	1.66
CC(C)CC1(c2ccccc2)NC(=N)N(Cc2ccc(Cl)c(C(=O)N3Cc4cnc(C#N)nc4C3)c2)C1=O (centres unmarked) [Compound 364, 6-[(2-chloro-5-{[2-imino-4-(2-methylpropyl)-5-oxo-4-phenylimidazolidin-1-yl]methyl}phenyl)carbonyl]-6,7-dihydro-5H-pyrrolo[3,4-d]pyrimidine-2-carbonitrile]	4.17
CC(C)CC1(c2ccccc2)NC(=N)N(Cc2ccc(Cl)c(C(=O)N3Cc4nccnc4C3)c2)C1=O (centres unmarked) [Compound 365, 3-[4-chloro-3-(5,7-dihydro-6H-pyrrolo[3,4-b]pyrazin-6-ylcarbonyl)benzyl]-2-imino-5-(2-methylpropyl)-5-phenylimidazolidin-4-one]	4.87
CC(C)CC1(c2ccccc2)NC(=N)N(Cc2ccc(Cl)c(C(=O)N3Cc4cccnc4C3)c2)C1=O (centres unmarked) [Compound 366, 3-[4-chloro-3-(5,7-dihydro-6H-pyrrolo[3,4-b]pyridin-6-ylcarbonyl)benzyl]-2-imino-5-(2-methylpropyl)-5-phenylimidazolidin-4-one]	5.08
N#Cc1ncc2c(n1)CN(C(=O)c1cc(CN3C(=N)NC(c4ccccc4)(c4ccccc4)C3=O)ccc1Cl)C2 [Compound 367, 6-({2-chloro-5-[(2-imino-5-oxo-4,4-diphenylimidazolidin-1-yl)methyl]phenyl}carbonyl)-6,7-dihydro-5H-pyrrolo[3,4-d]pyrimidine-2-carbonitrile]	5.13
N=C1NC(c2ccccc2)(c2ccccc2)C(=O)N1Cc1ccc(Cl)c(C(=O)N2Cc3cccnc3C2)c1 [Compound 368, 3-[4-chloro-3-(5,7-dihydro-6H-pyrrolo[3,4-b]pyridin-6-ylcarbonyl)benzyl]-2-imino-5,5-diphenylimidazolidin-4-one]	5.42
COc1ccc(CN2C(=N)NC(c3ccc(Cl)cc3)(c3ccc(Cl)cc3)C2=O)cc1C(=O)N1Cc2nccnc2C1 [Compound 369, 5,5-bis(4-chlorophenyl)-3-[3-(5,7-dihydro-6H-pyrrolo[3,4-b]pyrazin-6-ylcarbonyl)-4-methoxybenzyl]-2-iminoimidazolidin-4-one]	31.4
COC(=O)Nc1ncc2c(n1)CN(C(=O)c1cc(CN3C(=N)NC(c4ccc(F)cc4)(c4ccc(F)cc4)C3=O)ccc1F)C2 [Compound 370, methyl {6-[(5-{[4,4-bis(4-fluorophenyl)-2-imino-5-oxoimidazolidin-1-yl]methyl}-2-fluorophenyl)carbonyl]-6,7-dihydro-5H-pyrrolo[3,4-d]pyrimidin-2-yl}carbamate]	5.81
COc1ccc(CN2C(=N)NC(c3ccccc3)(c3ccccc3)C2=O)cc1C(=O)N1Cc2ccccc2C1 [Compound 371, 3-[3-(1,3-dihydro-2H-isoindol-2-ylcarbonyl)-4-methoxybenzyl]-2-imino-5,5-diphenylimidazolidin-4-one]	29.5
COc1ccc(CN2C(=N)NC(c3ccccc3)(c3ccccc3)C2=O)cc1C(=O)N1Cc2cccc(F)c2C1 [Compound 372, 3-{3-[(4-fluoro-1,3-dihydro-2H-isoindol-2-yl)carbonyl]-4-methoxybenzyl}-2-imino-5,5-diphenylimidazolidin-4-one]	6.91
CC(C)CC1(c2ccccc2)NC(=N)N(Cc2ccc(Cl)c(C(=O)N3Cc4cncnc4C3)c2)C1=O (centres unmarked) [Compound 373, 3-[4-chloro-3-(5,7-dihydro-6H-pyrrolo[3,4-d]pyrimidin-6-ylcarbonyl)benzyl]-2-imino-5-(2-methylpropyl)-5-phenylimidazolidin-4-one]	6.93
N=C1NC(c2ccccc2)(c2ccccc2)C(=O)N1Cc1ccc(Cl)c(C(=O)N2Cc3cncnc3C2)c1 [Compound 374, 3-[4-chloro-3-(5,7-dihydro-6H-pyrrolo[3,4-d]pyrimidin-6-ylcarbonyl)benzyl]-2-imino-5,5-diphenylimidazolidin-4-one]	7.02
N=C1NC(c2ccc(F)cc2)(c2ccc(F)cc2)C(=O)N1Cc1ccc(Cl)c(C(=O)N2Cc3ccccc3C2)c1 [Compound 375, 3-[4-chloro-3-(1,3-dihydro-2H-isoindol-2-ylcarbonyl)benzyl]-5,5-bis(4-fluorophenyl)-2-iminoimidazolidin-4-one]	7.56
N=C1NC(c2ccc(F)cc2)(c2ccc(F)cc2)C(=O)N1Cc1ccc(Cl)c(C(=O)N2Cc3cncnc3C2)c1 [Compound 376, 3-[4-chloro-3-(5,7-dihydro-6H-pyrrolo[3,4-d]pyrimidin-6-ylcarbonyl)benzyl]-5,5-bis(4-fluorophenyl)-2-iminoimidazolidin-4-one]	9.6
N=C1NC(c2ccc(F)cc2)(c2ccc(F)cc2)C(=O)N1Cc1ccc(Cl)c(C(=O)N2Cc3ccc(F)cc3C2)c1 [Compound 377, 3-{4-chloro-3-[(5-fluoro-1,3-dihydro-2H-isoindol-2-yl)carbonyl]benzyl}-5,5-bis(4-fluorophenyl)-2-iminoimidazolidin-4-one]	10
CN1CCN(C(=O)c2cc(CN3C(=N)NC(c4ccccc4)(c4ccccc4)C3=O)ccc2Cl)CC1=O [Compound 378, 4-({2-chloro-5-[(2-imino-5-oxo-4,4-diphenylimidazolidin-1-yl)methyl]phenyl}carbonyl)-1-methylpiperazin-2-one]	10.6
N=C1NC(c2ccccc2)(c2ccccc2)C(=O)N1Cc1ccc(F)c(C(=O)N2Cc3nccnc3C2)c1 [Compound 379, 3-[3-(5,7-dihydro-6H-pyrrolo[3,4-b]pyrazin-6-ylcarbonyl)-4-fluorobenzyl]-2-imino-5,5-diphenylimidazolidin-4-one]	10.7

Reference: patent US20200069691A1, “HETEROCYCLIC COMPOUNDS AS HIV PROTEASE INHIBITORS” (Merck Sharp & Dohme Corp., priority 2016, published 2020)
